Assay results reported in patent US20080008768A1, “Compositions and Methods for Inhibiting Sonic Hedgehog Activity” (priority 2004, published 2008).
Values joined by “and” are separate entries in the source; they are usually repeats but may differ in a detail not shown here. Equal values may be shown once. Read-outs that look alike come from different tables or passages of the source. Marks after values point to notes of the source that are not given here.

Assays:
[1] = tested on: Shh-dependent pancreatic cancer cell line L3.6pl; format: cell-based; conditions: for Cell Growth (normalized): normalized to cell growth in carrier
[2] = tested on: mouse embryo zone of polarizing activity (ZPA); conditions: Bell, et al. (1999); cited from earlier work
C57BL/6CrIBR mice = experiment: Cadmium-induced forelimb ectrodactyly in fetuses of treated pregnant mice; format: in vivo, mouse
Procedure: Cadmium-induced Forelimb Ectrodactyly. C57BL/6CrIBR mice were purchased from Charles River Laboratories (Wilmington, Mass.). Individual males were placed in female cages for the last 2-3 hours of the 12 hour dark cycle (10:00 pm to 10:00 am). The presence of a vaginal plug indicated a successful mating and 9:00 am was considered time zero of pregnancy. On day 7 of gestation, plugged females were lightly anesthetized with Isofluorane and checked for pregnancy by abdominal palpation. The pregnant females were administered CdSO4 (SIGMA, St. Louis, Mo.), 4 mg/kg in phosphate-buffered saline (PBS), intraperitoneally, at 9:00 pm on day 9. These pregnant females were then allowed free access to food and water until day 18 when they were sacrificed by Isofluorane overdose. The fetuses were removed from the uterus and prepared for skeletal analysis by double-staining of cartilage and bone (Kuczuk and Scott (1984) supra).
CdSo4, 4 mg/kg, was administered intraperitoneally on day 9 of gestation.

Ptch1 [3] = experiment: Whole mount in situ hybridization, Ptch1; format: in vivo, mouse; conditions: right forelimb, 24 hours after treatment
Procedure: (§1) Whole Mount In Situ Hybridization. Assays were performed in accordance with standard methods (Wilkinson and Nieto (1993) Meth. Enzymol. 225:361-373). Embryos from control and cadmium-exposed pregnancies were processed together in the same vessel, examined and photographed using an OLYMPUS® SZX9 stereomicroscope. Digoxigenin-labeled riboprobes were transcribed from linearized DNA templates.
(§2) The expression pattern of four genes (i.e., Shh, Ptch1, Gli3, and Fgf8) in the right forelimb of control and cadmium-exposed embryos was examined by whole mount in situ hybridization 24 hours after treatment. The expression of Shh was restricted to the posterior mesenchymal cells of the developing murine limb bud.

Fgf8 = experiment: Whole mount in situ hybridization, Fgf8; format: in vivo, mouse; conditions: day 10.5, 24 hours after administration
Procedure: as §1, §2

Shh [4] = experiment: Whole mount in situ hybridization, Shh; format: in vivo, mouse; conditions: right forelimb, 24 hours after treatment
Procedure: as §1, §2

Shh signaling = Shh signaling activity of forelimb bud lysate in Shh-Light 2 cells (Gli-luciferase reporter); format: cell-based, mouse; conditions: lysate of E10.5 right forelimb bud cells, 24 h after 4 mg/kg to dam
Procedure: Shh Signaling Activity. Pregnant C57BL/6 mice were treated with CdSo4, 4 mg/kg, or PBS, 10 mL/kg, at 9:00 pm on day 9 of gestation. Twenty-four hours post-treatment the dams were sacrificed. The implantation sites were removed and frozen in liquid nitrogen. Samples were stored at −80° C. until use in the Shh activity assay.
To create a sample of cell lysate, a litter of implantation sites was thawed and the embryos dissected free of their surrounding membranes. Somites were counted and the embryo limb staged according to standard practices (Wanek, et al. (1989) J. Exp. Zool. 249:41-49). […] Samples were sonicated and DNA measured using the HOEFER™ DYNA QUANT™ 200 Fluorimeter. After DNA quantification, fetal bovine serum was added so that the final concentration of serum was 0.5%.
Assay of SHH signaling activity was conducted in Shh-Light 2 cells, an NIH-3T3-derived stable cell line containing an integrated Gli-luciferase and constitutive Renilla luciferase reporters. […] Using the DUAL-LUCIFERASE® Reporter Assay System (PROMEGA®, Madison, Wis.), luciferase activity was measured and normalized to a Renilla control.
A more direct and specific assay of Shh signaling is provided in Shh-Light 2 cells. […] Culture of these cells with a medium or cellular homogenate containing Shh activates reporter expression and that activity can be quantitated luminometrically.

Shh [5] = experiment: Quantitative RT-PCR of forelimb buds, Shh; format: in vivo, mouse; conditions: limb buds of day 10.5 embryos, normalized to tubulin
Procedure: (§3) Real Time Reverse Transcribed-Polymerase Chain Reaction (RT-PCR). Precise levels of message expression of Shh, Ptch1, and Gli3 were performed by RT-PCR. […] Right and left forelimb buds from a single litter (n=3) were pooled separately and equal amounts of total RNA were reverse-transcribed using […]™ II (INVITROGEN™, Carlsbad, Calif.) in the presence of oligo-dT or random primers. For quantitative PCR, aliquots of the reverse transcription reaction were amplified in the presence of SYBR® Green (Quantitect SYBR® green PCR kit; QIAGEN®, Valencia, Calif.) and gene specific primers for Shh, Ptch1, Gli3 and aTub. […] The PCR amplifications and monitoring of product generation per cycle were performed using a DNA Engine OPTICON® 2 Continuous Fluorescence Detector and evaluated using its software. Gene expression levels were determined by gene-specific standard curves in the linear amplification phase. All values were normalized to tubulin within the same sample.

[6] = tested on: mouse embryo zone of polarizing activity (ZPA); experiment: Polarizing activity of mouse embryo ZPA grafted to chick wing bud; format: in vivo
Procedure: Polarizing Activity. Fertilized White Leghorn eggs (SPAFAS) were incubated at 38° C. On the second day, 1 to 2 mL of albumin were removed so that the eggs could be windowed the next day without damaging the embryo. After windowing, 3 drops of penicillin/streptomycin (50 units/mL) were added and the window closed with SCOTCH™ tape. On the fourth day of incubation a piece of day 10.5 mouse embryo right forelimb was excised from the posterior aspect (i.e., ZPA) of cadmium sulfate- or PBS-exposed embryos and grafted between the ectoderm and mesenchyme at the anterior margin of a stage 19/20 (Hamburger and Hamilton (1951) J. Morphol. 88:49-92) chick right wing bud. After grafting, 3 drops of penicillin/streptomycin were added, the window closed with tape and the egg replaced in the incubator for 7 additional days. At this time the chick embryo was sacrificed and the right wing bud processed for skeletal examination (Kuczuk and Scott (1984) supra). After staining, the digit pattern was determined and the index of polarizing activity was assessed according to standard methods (Honig, et al. (1981) J. Embryol. Exp. Morph. 62:203-216),

Ptch1 [7] = experiment: Quantitative RT-PCR of forelimb buds, Ptch1; format: in vivo, mouse; conditions: limb buds of day 10.5 embryos, normalized to tubulin
Procedure: as §3

Gli3 [8] = experiment: Quantitative RT-PCR of forelimb buds, Gli3; format: in vivo, mouse; conditions: limb buds of day 10.5 embryos, normalized to tubulin
Procedure: as §3

Gli3 [9] = experiment: Whole mount in situ hybridization, Gli3; format: in vivo, mouse; conditions: right forelimb, 24 hours after treatment
Procedure: as §1, §2

[10] = 4 mg/kg i.p. day 9 of gestation, 8 dams, 68 implantation sites
[11] = 4 mg/kg i.p. day 9 of gestation, fetuses examined day 18

## CC(=O)Nc1nnc(S(N)(=O)=O)s1 [Acetazolamide, reference compound]
[1]; inhibitor 10 μM
  Cell Growth (normalized): 1.0312
[1]; inhibitor 100 μM
  Cell Growth (normalized): 1.0370
[1]; inhibitor 1000 μM
  Cell Growth (normalized): 1.0130
[2]
  Signaling by Shh protein measured by polarizing activity of ZPA (in words): almost totally abolished

## Cadmium Sulfate
C57BL/6CrIBR mice; 4 mg/kg i.p. day 9
  Fetuses with right forelimb affected by postaxial ectrodactyly: 78%
  Number of fetuses with ectrodactyly, Bilateral R < L: 3
  Number of fetuses with ectrodactyly, Bilateral R = L: 21
  Number of fetuses with ectrodactyly, Bilateral R > L: 5
C57BL/6CrIBR mice; 4 mg/kg i.p. day 9, left forelimb only
  Number of fetuses with ectrodactyly, LFL Only: 4
C57BL/6CrIBR mice; 4 mg/kg i.p. day 9, right forelimb only
  Number of fetuses with ectrodactyly, RFL Only: 12*
C57BL/6CrIBR mice; [10]
  No. Resorptions: 15
  Resorptions (%): 22%
C57BL/6CrIBR mice; [11]
  Fetuses with Postaxial Forelimb Ectrodactyly (%): 85%
  No. Fetuses with Postaxial Forelimb Ectrodactyly: 45
Ptch1 [3]
  Ptch1 expression pattern (in words): unchanged
Fgf8
  Fgf8 staining (in words): slight truncation of Fgf8 staining posteriorly
[1]; comparison of inhibitors
  Inhibition of proliferation (in words): more effectively than cyclopamine and acetazolamide
[1]; inhibitor 1 μM
  Cell Growth (normalized): 1.0341
[1]; inhibitor 10 μM
  Cell Growth (normalized): 0.9007
[1]; inhibitor 30 μM
  Cell Growth (normalized): 0.7200
[1]; inhibitor 100 μM
  Cell Growth (normalized): 0.0041
[1]; inhibitor 1000 μM
  Cell Growth (normalized): 0.0029
Shh [4]
  Shh expression location or intensity (in words): No discernable difference
Shh signaling
  Shh signaling level compared to lysate from control embryo right forelimb buds: 25%
Shh [5]
  Shh mRNA level (in words): A reduction of mRNA levels was not observed
[6]; day 10.5 mouse embryo ZPA after exposure
  Capability of ZPA to induce limb reduplication (in words): severely inhibited
[6]; individual grafts of day 10.5 ZPA from exposed embryos, x = unidentifiable partial duplicated digit, listed as CdSo4
  Induced Digit Pattern: 22234 and 234 (4×)
Ptch1 [7]
  Ptch1 mRNA level (in words): A reduction of mRNA levels was not observed
Gli3 [8]
  Gli3 mRNA level (in words): A reduction of mRNA levels was not observed
Gli3 [9]
  Gli3 expression (in words): did not alter Gli3 expression
